Source: patent publication US6444878B1, “Method of plant selection using glucosamine-6-phosphate deaminase” (Danisco A/S, priority 1997, dated 2002)
Counter-ions that a name gives are not always drawn. Like-named read-outs stand apart in the source and are kept apart here.

Columns and labels:
[1] = test system: glucosamine-6-phosphate deaminase encoded by nagB; assay: Conversion of GA6P to F6P by glucosamine-6-phosphate deaminase, allosteric effect; type: biochemical, E. coli; details: FIG. 3
Text: One aspect of the selection method of the present invention provides an additional advantageous feature. […] This surprising finding is in accordance with studies done with E. coli (Calcagno, M, et al (1984) Biochim Biophys Acta 787: 165-173). Thus, should any glucosamine be metabolised to NAGA and in turn eventually to NAG6P then that NAG6P would ensure conversion of GA6P to F6P by the enzyme glucosamine-6-phosphate deaminase or at least aid the conversion step. This is an advantageous feature of the highly preferred selection method of the present invention.

[2] = test system: guar cotyledonary explants transformed with nagB; assay: Selection of transgenic guar shoots on glucosamine selection medium, GUS histochemical assay; type: cell-based, Cyamopsis tetragonoloba
Method: Transformation of guar cotyledonary explants was performed according to Joersbo and Okkels (PCT/DK95/00221) using Agrobacterium tumefaciens LBA4404 harbouring the plasmid shown in FIG. 10. Selection of transgenic shoots was accomplished using the above-mentioned selection medium with various concentrations of glucosamine, sucrose and Garnborg B5 salts. After four weeks the shoots were harvested and all explants were transferred to fresh selection medium (same composition) and after another four weeks of selection the last shoots were harvested. After harvest, the shoots were analysed for β-glucuronidase (GUS) activity using the histochemical assay (Jefferson et al, 1987, EMBO J 6: 3901-3907).

[3] = test system: non-transgenic guar cotyledons; type: cell-based; details: glucosamine 3.0 g/l
Method: In order to establish the toxicity of glucosamine to guar explants, a dose-response curve with glucosamine concentrations ranging from 0 to 5.0 g/l was made using non-transgenic guar cotyledons as explants. The effect on shoot formation on the explants was used to determine the toxicity of glucosamine (FIG. 20).
The guar explants were obtained as follows. Guar seeds were sterilized in a 2.5% sodium hypochlorite solution at pH 7.0 added two drops of Tween 80 pr 100 ml solution. The seeds were stirred for 25 minutes in this solution and then washed five times with sterile water. Seeds were sown on germination medium (4.43 g/l MSMO (Sigma M6899), 20 g/l sucrose, 8.0 g/l agar, pH adjusted to 5.8 with KOH) and placed at 25° C. for 11-13 days at a 12 h/12 h day/night regime.
The cotyledons including about 2 mm of hypocotyl were excised from the seedlings and were used as explants for this experiment as well as for transformation experiments. The cotyledons were placed on selection medium containing various concentrations of glucosamine.
0-5 g/l D-glucosamine, HCl (according to the experiment)
After three weeks, the percentage of explants forming shoots on the various glucosamine containing media were determined and the results are given in FIG. 20.
In order to be able to find appropriate selection conditions, some factors affecting the toxicity of glucosamine were studied. Initially, sucrose was tested at various concentrations (5-40 g/l) in the selection medium. […] It is expected that other saccharides such glucose, fructose, maltose, mannose etc may also affect the effect of glucosamine.
Next, the effect of the concentration of the Gamborg B5 salts in the selection medium was tested in the presence of glucosamine (3.0 g/l). We investigated the use of these salts with a view to decreasing the carbon content of the medium.

[4] = test system: Solanum tuberosum cv Saturna explants; type: cell-based; details: for Number of transformed areas per explant / Number of transgenic shoots / Transformation frequency (number transgenic shoots/started explants) / Transformation frequency (%) (Number transgenic shoots/started explants): sucrose 7.5 g/l
Method: The disarmed Agrobacterium tumefaciens strain LBA 4404, containing the helper vir plasmid pRAL4404 (Hoekema et al, 1983 Nature 303 pp 179-180), was cultured on YMB agar (K2HPO4.3H2O 660 mg l^−1, MgSO4 200 mg l^−1, NaCl 100 mg l^−1, mannitol 10 g l^−1, yeast extract 400 mg l^−1, 0.8% w/v agar, pH 7.0) containing 100 mg l^−1 rifampicin and 500 mg l^−1 streptomycin sulphate. Transformation with pVICTOR IV GNG E35S nagB IV2 or pVICTOR IV GNG rbc nagB IV2 or pVICTOR IV GNG E35 S nagB was accomplished using the freeze-thaw method of Holters et al (1978 Mol Gen Genet 163 181-187) and transformants were selected on YMB agar containing 100 mg l^−1 rifampicin and 500 mg l^−1 streptomycin, and 50 mg l^−1 gentamycin sulphate. Transformation with a control construct lacking the nagB gene was performed in the same manner.
Shoot cultures of Solanum tuberosum cv Saturna were maintained on LS agar containing Murashige Skoog basal salts (Sigma M6899) (Murashige and Skoog, 1965, Physiol Plant 15 473-497) with 2 μM silver thiosulphate, and nutrients and vitamins as described by Linsmaier and Skoog (1965 Physiol Plant 18 100-127). Cultures were maintained at 25° C. with a 16 h daily photoperiod. After approximately 40 days, subculturing was performed during and the shoots cut into mononodal segments of approximately 8 mm length.
Shoot cultures of approximately 40 days maturity (5-6 cm height) were cut into 8 mm internodal segments and/or leaves were cut off and wounded by making 24 small cuts over the midrib of the leaf. These were then placed into liquid LS-medium containing Agrobacterium tumefaciens transformed with pVICTOR IV GNG E35 S nagB IV2 or pVICTOR IV GNG rbc nagB IV2 or pVICTOR IV GNG E35S nagB (A660=0.5, pathlength 1 cm). Following incubation at room temperature for 30 minutes, the segments were dried by blotting on to sterile filter paper and transferred to LS agar (0.8% w/v containing 2 mg l^−1 2,4-D and 500 μg l^−1 trans-zeatin. The explants were covered with filter paper, moistened with LS medium, and covered with a cloth for three days at 25° C. Following this treatment, the segments can be washed with liquid LS medium containing 800 mg l^−1 carbenicillin, and then transferred on to LS agar (0.8% w/v) containing 1 mg l^−1 trans-zeatin, […] gibberellic acid (GA3), with sucrose (eg 7.5 g l^−1). This agar can optionally contain glucosamine (eg 2.5 g l^−1). The segments were sub-cultured to fresh substrate each […]. In 3 to 4 weeks, shoots develop from the segments and the formation of new shoots continued for 3-4 months.
The transgenic plants may be verified by performing a GUS assay on the cointroduced β-glucuronidase gene according to Hodal, L. et al. (Pl. Sci. (1992), 87: 115-122).

natural plant cells = details: formed from milli-molar amounts of glucosamine; cited from earlier work
[5] = second table, glucosamine 1 g/l
[6] = second table, glucosamine 2.5 g/l
[7] = second table, glucosamine 5 g/l
[8] = second table, glucosamine 7.5 g/l
[9] = second table, glucosamine 10 g/l
[10] = glucosamine 2 g/l, NH4/NO3 1298 g/l
[11] = glucosamine 2.5 g/l, NH4/NO3 1189 g/l
[12] = glucosamine 3 g/l, NH4/NO3 1093 g/l

## CC(=O)N[C@H]1C(O)O[C@H](COP(=O)(O)O)[C@@H](O)[C@@H]1O (stereo partly drawn) [NAG6P, N-acetyl glucosamine 6-phosphate]
[1]
  Effect on the conversion of GA6P to F6P by glucosamine-6-phosphate deaminase: positive effect (an allosteric effect)

## N[C@H]1C(O)O[C@H](CO)[C@@H](O)[C@@H]1O (stereo partly drawn) [glucosamine, D-glucosamine, HCl]
[2]; sucrose 10 g/l, glucosamine 2.5 g/l, B5-salts 3.2 g/l
  No of GUS-positive shoots: 2
[2]; sucrose 20 g/l, glucosamine 2.5 g/l, B5-salts 2.4 g/l
  No of GUS-positive shoots: 1
[2]; sucrose 20 g/l, glucosamine 3.0 g/l, B5-salts 2.4 g/l
  No of GUS-positive shoots: 1
[3]; Gamborg B5 salts in selection medium 1.6 g/l
  Shoot formation on guar explants (%): 6.2%
[3]; Gamborg B5 salts in selection medium 2.4 g/l
  Shoot formation on guar explants (%): 9.1%
[3]; Gamborg B5 salts in selection medium 3.2 g/l
  Shoot formation on guar explants (%): 17.4%
[4]
  Effect of NH4NO3 content on toxicity of glucosamine: lowering the content of NH4NO3 makes the glucosamine less toxic
[4]; [5]
  Number of transformed areas per explant: 3.8
  Number of transgenic shoots: 1
  Transformation frequency (number transgenic shoots/started explants): 2
[4]; [6]
  Number of transformed areas per explant: 0
  Number of transgenic shoots: 0
  Transformation frequency (number transgenic shoots/started explants): 0
[4]; [7]
  Number of transformed areas per explant: 0
  Number of transgenic shoots: 0
  Transformation frequency (number transgenic shoots/started explants): 0
[4]; [8]
  Number of transformed areas per explant: 0
  Number of transgenic shoots: 0
  Transformation frequency (number transgenic shoots/started explants): 0
[4]; [9]
  Number of transformed areas per explant: 0
  Number of transgenic shoots: 0
  Transformation frequency (number transgenic shoots/started explants): 0
[4]; glucosamine 2 g/l
  Number of transformed areas per explant: 0
  Transformation frequency (%) (Number transgenic shoots/started explants): 0%
[4]; [10]
  Number of transformed areas per explant: 0.025
  Number of transgenic shoots: 0
  Transformation frequency (%) (Number transgenic shoots/started explants): 0%
[4]; glucosamine 2 g/l, NH4/NO3 1650 g/l
  Number of transgenic shoots: 0
[4]; glucosamine 2.5 g/l
  Number of transformed areas per explant: 0
  Transformation frequency (%) (Number transgenic shoots/started explants): 0%
[4]; [11]
  Number of transformed areas per explant: 0
  Number of transgenic shoots: 0
  Transformation frequency (%) (Number transgenic shoots/started explants): 0%
[4]; glucosamine 2.5 g/l, NH4/NO3 1650 g/l
  Number of transgenic shoots: 0
[4]; glucosamine 3 g/l
  Number of transformed areas per explant: 0
  Transformation frequency (%) (Number transgenic shoots/started explants): 0%
[4]; [12]
  Number of transformed areas per explant: 0
  Number of transgenic shoots: 0
  Transformation frequency (%) (Number transgenic shoots/started explants): 0%
[4]; glucosamine 3 g/l, NH4/NO3 1650 g/l
  Number of transgenic shoots: 0

## N[C@H]1C(O)O[C@H](COP(=O)(O)O)[C@@H](O)[C@@H]1O (stereo partly drawn) [GA6P, glucosamine-6-phosphate]
Natural plant cells
  Toxicity to natural plant cells: toxic to natural plant cells
